Where a name gives a salt, the structure may show the parent alone. Read-outs that look alike come from different tables or passages of the source.
What was measured:
[1] = system: primary cultures of CGN (cerebellar granule neurons); experiment: Toxicity and cell viability in primary cultures of CGN; format: cell-based, mice; conditions: 24 or 48 hours, Coomassie staining, absorbance at 595 nm
Method: (§1) b) CGN: Cerebellar granule neurons derived from wild-type or transgenic mice were obtained from 6-day old mice. The basic process was similar to the previous one: obtaining and breaking up the tissue was similar and culturing and maintaining in final media was identical. The cerebellum was broken up by treatment with trypsin-EDTA for about 15-20 min and subsequently cultured in plates treated with Poly-L-Lysine (50 micrograms/m1). The neurons were maintained in a serum-free medium, Neurobasal medium+B27 Supplement+KCl+glutamine+antibiotics.
The cell viability of different strains was studied in the presence of the compounds of the invention. […] In the toxicity assays, the cells (whether neurons or established lines) were seeded in 24-well plates and exposed to different concentrations of the drug in Dulbecco's Modified Eagle's medium (DMEM)+10% FCS or in the Neurobasal medium+B27 Supplement+KCl+glutamine+antibiotics when primary neurons were used. The treatments were stopped after 24 or 48 hours by fixing the cells with 4% paraformaldehyde for 30 minutes. The fixed cells were stained with 0.2% Coomassie Brilliant blue R-250 in 10% acetic acid/40% methanol for 1 hour at ambient temperature. […] Then it was acidified with 10% trichloroacetic acid and the number of cells was measured in an Elisa reader, with absorbance at 595 nm. […]

tau phosphorylation = experiment: Ability to modify levels of tau phosphorylation in primary culture of cerebellar granule neurons and/or brain cortex (Western Blot, Tau 1, PHF1); format: cell-based, mice; conditions: CGN or brain cortex neurons
Method: a)—Mouse cortex neurons: brains were obtained from 16-18-day old embryos. The two hemispheres, olfactory bulbs and brain stem were separated. The meninges were removed and the cut tissue was transferred to a 50 ml flask. 10 ml HBSS without Ca without Mg (without phenol red) were added. Two further washings with 3 ml HBSS were performed and digestion was performed with Trypsin-DNase at 37° C. The suspension was broken up by passing the material through glass pipettes with different thicknesses. The cells were cut and cultured in Dulbecco's Modified Eagle's medium (DMEM)+10% FCS. After 3 hours the final medium was placed in Neurobasal medium+B27 Supplement+KCl+glutamine+antibiotics.
as §1
Ability to Modify Levels of Tau Phosphorylation in Primary Culture of Cerebellar Granule Neurons (CGN) and/or Brain Cortex Derived from Mice (Wild Strain)
The data was obtained in relation to the mean of 3 independent experiments of the relative level of tau-1 in soluble cell extracts obtained from cerebellar granule or brain cortex neurons treated with the indicated compounds. The ability to modify the level of tau phosphorylation in cortex neurons or cerebellar granule of […] was analyzed through Western Blot using specific antibodies in a series of fosfo-epitopes (Tau 1, PHF1) after 1, 2 and 3 incubation hours. Actine was used as reference (indicator of the total mass).

cell line CHO-APP-PS1 = experiment: Toxicity and cell viability in cultures of cell line CHO-APP-PS1; format: cell-based, Chinese hamster
Method: The cell viability of different strains was studied in the presence of the compounds of the invention. […] In the toxicity assays, the cells (whether neurons or established lines) were seeded in 24-well plates and exposed to different concentrations of the drug in Dulbecco's Modified Eagle's medium (DMEM)+10% FCS or in the Neurobasal medium+B27 Supplement+KCl+glutamine+antibiotics when primary neurons were used. The treatments were stopped after 24 or 48 hours by fixing the cells with 4% paraformaldehyde for 30 minutes. The fixed cells were stained with 0.2% Coomassie Brilliant blue R-250 in 10% acetic acid/40% methanol for 1 hour at ambient temperature. The stained cells were washed thoroughly with distilled water, and once dried the incorporated dye was extracted with 0.1 N NaOH in 50% methanol. Then it was acidified with 10% trichloroacetic acid and the number of cells was measured in an Elisa reader, with absorbance at 595 nm. DMSO (10 μl/well) was used as a control. […] The medium was collected for 6 hours, and then it was diluted 5 times and analyzed in duplicate using a Biosource ELISA kit (h 1-40 βAmyloid—Ref #KHB3482).

[2] = at 5 and/or 10 micromolar, relative level of tau-1
[3] = relative level of tau-1 in soluble cell extracts, mean of 3 experiments

SMILES | ability to modify the level of tau phosphorylation (tau phosphorylation; [2]) | other results
Clc1ccc(C(Oc2cccc3ccccc23)C2CCNCC2)cc1 (racemic) [COMPOUND 31, (+/−)-4-[(Naphthalen-1-oxy)(4-chlorophenyl)methyl]piperidine hemisulphate] | modify tau phosphorylation | toxicity (cell viability) [1]: somewhat toxic only at certain concentrations
Fc1cc(COc2ccc3c(c2)OCO3)cc(OC(c2ccccc2)C2CCNCC2)c1 (racemic) [COMPOUND 32, hydrochloride] | modify tau phosphorylation | –
NCCN1CCC(C(Oc2cccc(F)c2)c2ccccc2)CC1 (racemic) [COMPOUND 37, (+/−)-4-[(3-fluorophenoxy)phenylmetyl]piperidin-1-yl]ethylamine oxalate] | modify tau phosphorylation | toxicity (cell viability) [1]: somewhat toxic only at certain concentrations
Ic1cccc(OC(c2ccccc2)C2CCNCC2)c1 (stereo not drawn) [COMPOUND 3] | – | toxicity (cell viability) (cell line CHO-APP-PS1): none of them giving rise to statistically relevant toxicity levels; ability to modify the level of tau phosphorylation (tau phosphorylation; [3]): modify tau phosphorylation
Cc1ccc(Cl)cc1OC(c1ccccc1)C1CCNCC1 (stereo not drawn) [COMPOUND 10] | – | toxicity (cell viability) (cell line CHO-APP-PS1; cultures of cell line CHO-APP-PS1, 24 or 48 hours, Coomassie staining, absorbance at 595 nm): none of them giving rise to statistically relevant toxicity levels; ability to modify the level of tau phosphorylation (tau phosphorylation; [3]): modify tau phosphorylation
Fc1ccccc1OC(c1ccccc1)C1CCNCC1 (stereo not drawn) [COMPOUND 21] | modify tau phosphorylation | –
Fc1ccc(OC(CC2CCNCC2)c2ccc(F)cc2)cc1 (stereo not drawn) [COMPOUND 24] | modify tau phosphorylation | –
Fc1ccc(OC(CC2CCNCC2)c2ccccc2)cc1 (stereo not drawn) [COMPOUND 27] | modify tau phosphorylation | –
FC(F)(F)c1ccccc1OC(c1ccccc1)C1CCNCC1 (stereo not drawn) [COMPOUND 29] | modify tau phosphorylation | –
Clc1ccc(OC(c2ccccc2)C2CCNCC2)cc1Cl (stereo not drawn) [COMPOUND 34] | modify tau phosphorylation | –
c1ccc(C(Oc2cccc3ccccc23)C2CCNCC2)cc1 (stereo not drawn) [COMPOUND 35] | modify tau phosphorylation | –
Clc1ccc(/C=C(\c2ccccc2)C2CCNCC2)cc1 [COMPOUND 36, (Z)-4-[(1-phenyl)-2-(4-chlorophenyl)ethen-1-yl]piperidine] | modify tau phosphorylation | –
c1ccc(-c2ccccc2OC(c2ccccc2)C2CCNCC2)cc1 (stereo not drawn) [COMPOUND 40] | modify tau phosphorylation | –
FC(F)(F)c1ccc(OC(c2ccccc2)C2CCNCC2)cc1 (stereo not drawn) [COMPOUND 41] | modify tau phosphorylation | –

From patent US20130131079A1, “FLUFENOXINE DERIVATIVES FOR THE TREATMENT AND PREVENTION OF AMYLOID PATHOLOGIES” (FAES FARMA, S.A., priority 2010, published 2013)
